Like-named read-outs stand apart in the source and are kept apart here.
Columns and labels:
human α2A‐adrenoceptor [1] = target: T1, human α2A‐adrenoceptor (Homo sapiens, UniProt P08913); test: ^3H‐rauwolscine whole cell competition binding, CHO‐α2A cells; settings: for Selectivity ratio α2A vs α2B (higher affinity for α2A): ratio of KD values
T1 sequence (P08913 1-465): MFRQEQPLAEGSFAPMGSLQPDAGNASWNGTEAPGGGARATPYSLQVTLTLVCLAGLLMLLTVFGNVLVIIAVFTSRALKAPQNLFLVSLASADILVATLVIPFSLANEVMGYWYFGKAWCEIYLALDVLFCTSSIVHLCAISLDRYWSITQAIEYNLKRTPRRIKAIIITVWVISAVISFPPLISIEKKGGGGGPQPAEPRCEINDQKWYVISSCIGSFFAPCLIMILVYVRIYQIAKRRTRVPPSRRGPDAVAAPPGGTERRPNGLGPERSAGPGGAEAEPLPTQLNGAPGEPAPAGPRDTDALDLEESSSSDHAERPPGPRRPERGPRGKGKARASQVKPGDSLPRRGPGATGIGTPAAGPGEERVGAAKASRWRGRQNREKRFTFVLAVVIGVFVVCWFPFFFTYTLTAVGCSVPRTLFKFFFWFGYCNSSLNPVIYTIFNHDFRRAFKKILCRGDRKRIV

human α2C‐adrenoceptor [2] = target: T2, human α2C‐adrenoceptor (Homo sapiens, UniProt P18825); test: cell-based
T2 sequence (P18825 1-462): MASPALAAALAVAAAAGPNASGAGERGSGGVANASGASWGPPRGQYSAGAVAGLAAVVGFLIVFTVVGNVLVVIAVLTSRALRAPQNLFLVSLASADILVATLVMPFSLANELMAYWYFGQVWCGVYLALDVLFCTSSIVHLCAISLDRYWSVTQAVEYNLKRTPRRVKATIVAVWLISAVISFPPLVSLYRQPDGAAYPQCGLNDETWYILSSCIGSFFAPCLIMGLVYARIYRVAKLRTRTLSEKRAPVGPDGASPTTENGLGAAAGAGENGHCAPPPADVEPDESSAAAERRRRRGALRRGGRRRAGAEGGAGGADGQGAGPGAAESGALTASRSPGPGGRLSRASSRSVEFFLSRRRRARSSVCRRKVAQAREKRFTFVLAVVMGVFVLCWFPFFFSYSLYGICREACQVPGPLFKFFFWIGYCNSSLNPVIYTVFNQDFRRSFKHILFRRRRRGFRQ

human α2B‐adrenoceptor = target: T3, human α2B‐adrenoceptor (Homo sapiens, UniProt P18089); test: ^3H‐rauwolscine whole cell competition binding, CHO‐α2B cells
T3 sequence (P18089 1-450): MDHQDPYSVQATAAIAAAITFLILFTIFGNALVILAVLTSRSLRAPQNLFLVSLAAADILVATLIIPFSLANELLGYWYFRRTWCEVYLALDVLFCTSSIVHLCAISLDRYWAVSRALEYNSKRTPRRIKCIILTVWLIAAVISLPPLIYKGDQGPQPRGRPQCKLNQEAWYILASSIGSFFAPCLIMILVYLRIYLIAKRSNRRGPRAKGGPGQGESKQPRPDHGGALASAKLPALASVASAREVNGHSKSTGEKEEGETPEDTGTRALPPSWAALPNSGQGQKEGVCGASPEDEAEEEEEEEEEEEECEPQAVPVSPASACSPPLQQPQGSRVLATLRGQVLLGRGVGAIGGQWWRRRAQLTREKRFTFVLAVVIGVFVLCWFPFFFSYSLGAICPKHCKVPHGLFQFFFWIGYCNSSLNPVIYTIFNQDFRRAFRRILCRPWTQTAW

human α2A‐adrenoceptor [3] = target: T1, human α2A‐adrenoceptor; test: cell-based
human β1‐adrenoceptor [4] = target: T4, human β1‐adrenoceptor (Homo sapiens, UniProt P08588); test: cell-based
T4 sequence (P08588 whole entry): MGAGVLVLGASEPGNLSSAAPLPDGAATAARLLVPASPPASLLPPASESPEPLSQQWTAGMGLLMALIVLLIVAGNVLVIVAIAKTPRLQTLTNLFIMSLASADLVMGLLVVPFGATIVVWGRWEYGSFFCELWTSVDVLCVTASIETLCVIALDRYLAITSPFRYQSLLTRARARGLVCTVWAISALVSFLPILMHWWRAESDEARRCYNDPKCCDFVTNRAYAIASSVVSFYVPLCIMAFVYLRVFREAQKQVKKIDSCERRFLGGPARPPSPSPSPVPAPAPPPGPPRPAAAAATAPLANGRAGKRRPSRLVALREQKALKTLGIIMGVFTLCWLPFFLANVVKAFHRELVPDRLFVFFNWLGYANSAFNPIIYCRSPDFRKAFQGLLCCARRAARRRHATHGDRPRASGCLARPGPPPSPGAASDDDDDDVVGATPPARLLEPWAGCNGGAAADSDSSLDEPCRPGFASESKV

human β2‐adrenoceptor = human β2‐adrenoceptor (Homo sapiens, UniProt P07550); type: binding; settings: for IC50: read-out: IC50 (log) β2, IC50>top concentration used (converted); for Kd / Log KD β2: mean ± s.e.mean; for Kd: read-out: Log KD β2 (converted)
Chain of human β2‐adrenoceptor (P07550 whole entry): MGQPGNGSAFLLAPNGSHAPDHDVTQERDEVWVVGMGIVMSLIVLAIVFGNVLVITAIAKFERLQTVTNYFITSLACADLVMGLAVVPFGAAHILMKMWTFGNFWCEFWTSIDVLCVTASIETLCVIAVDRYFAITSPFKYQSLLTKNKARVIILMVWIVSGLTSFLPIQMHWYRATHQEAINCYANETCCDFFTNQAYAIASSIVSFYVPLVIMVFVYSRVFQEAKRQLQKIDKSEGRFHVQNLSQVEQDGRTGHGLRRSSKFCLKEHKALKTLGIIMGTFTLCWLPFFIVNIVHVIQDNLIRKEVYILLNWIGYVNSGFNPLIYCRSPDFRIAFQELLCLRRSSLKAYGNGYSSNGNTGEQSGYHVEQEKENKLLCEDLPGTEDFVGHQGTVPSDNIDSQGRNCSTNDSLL

human α2C‐adrenoceptor [5] = target: T2, human α2C‐adrenoceptor; test: ^3H‐rauwolscine whole cell competition binding, CHO‐α2C cells; settings: for Selectivity ratio α2A vs α2C (higher affinity for α2C) / Selectivity ratio α2B vs α2C (higher affinity for α2C): ratio of KD values
human β1‐adrenoceptor [6] = target: T4, human β1‐adrenoceptor; settings: mean ± s.e.mean
[7] = ^3H‐CGP12177 whole cell binding, log values, ^app = apparent KD, 'no binding to' = log top concentration
[8] = given as log KD (negative values), 3H-CGP12177 whole cell binding, CHO cells

Compound | Kd (human α2C‐adrenoceptor [2]) [µM] | Kd (human α2A‐adrenoceptor [3]) [µM] | IC50 (human β1‐adrenoceptor [4]) [µM] | IC50 (human β2‐adrenoceptor; ^3H‐CGP12177, log value) [µM] | Kd (human α2B‐adrenoceptor) [µM] | further results
Cc1ccc(OCC(O)C(C)NC(C)C)c2c1CCC2 (centres unmarked) [ICI118551] | 8.91 | 9.33 |  |  |  | IC50 (human α2B‐adrenoceptor): > 100 µM
COC(=O)C1=C(C)NC(C)=C(C(=O)NCCCN2CCC(c3ccccc3)(c3ccccc3)CC2)C1c1ccc([N+](=O)[O-])cc1 (centres unmarked) [SNAP5089] |  |  | > 10 |  |  | IC50 (human β2‐adrenoceptor): > 10 µM
COc1cc2nc(N(C)CCCNC(=O)C3CCCO3)nc(N)c2cc1OC (centres unmarked) [alfuzosin] | 0.724 | 2.75 |  |  | 24 | Selectivity ratio α2A vs α2C (higher affinity for α2C) (human α2C‐adrenoceptor [5]): 3.8; Selectivity ratio α2B vs α2C (higher affinity for α2C) (human α2C‐adrenoceptor [5]): 33.1; Log KD β1 (human β1‐adrenoceptor [6]; [7]): No binding; Log KD β1 (human β1‐adrenoceptor [6]; [8]): No binding to -4; Selectivity ratio α2A vs α2B (higher affinity for α2A) (human α2A‐adrenoceptor [1]): 8.7; Kd (human β2‐adrenoceptor; [7]): 66.1 µM
CN(C)CCC=C1c2ccccc2CCc2ccccc21 [amitriptyline] | 0.214 | 1.38 | > 100 | > 100 |  | 
CNCC[C@H](Oc1cccc2ccccc12)c1cccs1 [duloxetine] |  |  | > 31.6 |  | 4.9 | Kd (human α2C‐adrenoceptor [5]): 2.14 µM; Kd (human α2A‐adrenoceptor [1]): 3.72 µM
O=C1[C@@H]2[C@H]3CC[C@H](C3)[C@@H]2C(=O)N1C[C@@H]1CCCC[C@H]1CN1CCN(c2nsc3ccccc23)CC1 [lurasidone] | 0.0457 |  |  | > 10 | 0.0437 | 
CC(CN1c2ccccc2Sc2ccccc21)N(C)C (centres unmarked) [promethazine] | 2.88 |  | > 100 | > 100 |  | 
CCN1CCCC1CNC(=O)c1cc(S(N)(=O)=O)ccc1OC (centres unmarked) [sulpiride] |  | 31.6 | > 1000 | > 1000 |  | 
CCOc1ccccc1OCCN[C@H](C)Cc1ccc(OC)c(S(N)(=O)=O)c1 [tamsulosin] |  | 0.468 |  |  | 4.9 | Kd (human α2C‐adrenoceptor [5]): 0.389 µM; Selectivity ratio α2A vs α2C (higher affinity for α2C) (human α2C‐adrenoceptor [5]): 1.2; Selectivity ratio α2B vs α2C (higher affinity for α2C) (human α2C‐adrenoceptor [5]): 12.6; Kd (human β1‐adrenoceptor [4]): 0.55 µM; Selectivity ratio α2A vs α2B (higher affinity for α2A) (human α2A‐adrenoceptor [1]): 10.5; Kd (human β2‐adrenoceptor; [7]): 0.832 µM
COc1cc2nc(N3CCN(C(=O)C4CCCO4)CC3)nc(N)c2cc1OC (centres unmarked) [terazosin] |  | 6.61 |  |  |  | Log KD β1 (human β1‐adrenoceptor [6]; [7]): No binding to −4; Log KD β1 (human β1‐adrenoceptor [6]; [8]): No binding to -4; Log KD β2 (human β2‐adrenoceptor; [7]): No binding to −4; Log KD β2 (human β2‐adrenoceptor; [8]): No binding to -4
COc1ccccc1N1CCN(CCCNc2cc(=O)n(C)c(=O)n2C)CC1 [urapidil] |  | 3.24 |  |  |  | Kd (human β2‐adrenoceptor; [7]): 10 µM

Second part, led by results:

Kd (human α2C‐adrenoceptor [2]) [µM] | Kd (human α2A‐adrenoceptor [3]) [µM] | IC50 (human β1‐adrenoceptor [4]) [µM] | IC50 (human β2‐adrenoceptor; ^3H‐CGP12177, log value) [µM] | Compound | Kd (human α2B‐adrenoceptor) [µM] | further results
6.76 |  |  |  | Cn1cc(C(F)(F)F)nc1-c1ccc(OCC(O)CNCCOc2ccc(O)c(C(N)=O)c2)cc1 (centres unmarked) [CGP20712A] |  | IC50 (human α2A‐adrenoceptor [1]): > 100 µM; IC50 (human α2B‐adrenoceptor): > 100 µM
21.9 | 21.9 |  |  | CC(C)NCC(O)COc1cccc2[nH]c3ccccc3c12 (centres unmarked) [carazolol] |  | IC50 (human α2B‐adrenoceptor): > 100 µM
 |  | > 1000 | > 1000 | c1ccc2c(c1)OCC(C1=NCCN1)O2 (centres unmarked) [idazoxan] |  | 
0.158 | 0.977 | > 10 | > 10 | CC(C(O)c1ccc(O)cc1)N1CCC(Cc2ccccc2)CC1 (centres unmarked) [ifenprodil] | 0.724 | Selectivity ratio α2A vs α2C (higher affinity for α2C) (human α2C‐adrenoceptor [5]): 6.2; Selectivity ratio α2B vs α2C (higher affinity for α2C) (human α2C‐adrenoceptor [5]): 4.6; Selectivity ratio α2A vs α2B (higher affinity for α2B) (human α2B‐adrenoceptor; ratio of KD values): 1.3
1.29 | 5.62 | > 100 | > 100 | CN(C)CCCN1c2ccccc2CCc2ccccc21 [imipramine] | 0.437 | Selectivity ratio α2A vs α2C (higher affinity for α2C) (human α2C‐adrenoceptor [5]): 4.4; Selectivity ratio α2A vs α2B (higher affinity for α2B) (human α2B‐adrenoceptor; ratio of KD values): 12.9; Selectivity ratio α2B vs α2C (higher affinity for α2B) (human α2B‐adrenoceptor; ratio of KD values): 3.0
 |  | > 31.6 | > 31.6 | Fc1ccc([C@@H]2CCNC[C@H]2COc2ccc3c(c2)OCO3)cc1 [paroxetine] |  | IC50 (human α2C‐adrenoceptor [5]): > 10 µM
0.00182 | 0.107 | > 31.6 | > 31.6 | O=C1NCN(c2ccccc2)C12CCN(CC1COc3ccccc3O1)CC2 (centres unmarked) [spiroxatrine] |  | 

From paper PMC8882856, “The affinity and selectivity of α‐adrenoceptor antagonists, antidepressants and antipsychotics for the human α2A, α2B, and α2C‐adrenoceptors and comparison with human α1 and β‐adrenoceptors” (Pharmacology Research & Perspectives, 2022)
